What all share (assay type): biochemical
One experiment has as its target T1, BfFucH (Bacteroides fragilis, UniProt Q5LAD6).
T1 construct: gene BF9343_3156; codon-optimized gene in pET47b+, expressed in E. coli BL21(DE3), Ni-NTA and Superdex 200 purified; about 50 kDa
T1 sequence (Q5LAD6 21-434): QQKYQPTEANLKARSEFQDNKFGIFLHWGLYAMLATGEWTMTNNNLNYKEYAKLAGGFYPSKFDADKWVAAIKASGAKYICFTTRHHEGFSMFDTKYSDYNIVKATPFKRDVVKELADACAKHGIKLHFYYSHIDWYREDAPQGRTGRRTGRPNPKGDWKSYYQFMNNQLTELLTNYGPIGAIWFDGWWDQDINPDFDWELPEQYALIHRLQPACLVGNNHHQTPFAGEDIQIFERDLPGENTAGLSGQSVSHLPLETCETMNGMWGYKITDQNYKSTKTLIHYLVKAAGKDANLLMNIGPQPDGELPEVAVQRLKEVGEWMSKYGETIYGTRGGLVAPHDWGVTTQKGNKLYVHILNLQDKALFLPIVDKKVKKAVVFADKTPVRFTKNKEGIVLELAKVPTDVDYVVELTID
Description: block of AH062 probe labelling, blot chemiluminescence. The conditions noted are these: 100 uM inhibitor preincubated, 350 uM AH062, PBS pH 7.4; competitive.

The target of a further experiment is T2, TmFuc (Thermotoga maritima, UniProt Q9WYE2).
T2 construct: gene TM_0306; recombinant, commercial (Megazyme)
T2 sequence (Q9WYE2 1-449): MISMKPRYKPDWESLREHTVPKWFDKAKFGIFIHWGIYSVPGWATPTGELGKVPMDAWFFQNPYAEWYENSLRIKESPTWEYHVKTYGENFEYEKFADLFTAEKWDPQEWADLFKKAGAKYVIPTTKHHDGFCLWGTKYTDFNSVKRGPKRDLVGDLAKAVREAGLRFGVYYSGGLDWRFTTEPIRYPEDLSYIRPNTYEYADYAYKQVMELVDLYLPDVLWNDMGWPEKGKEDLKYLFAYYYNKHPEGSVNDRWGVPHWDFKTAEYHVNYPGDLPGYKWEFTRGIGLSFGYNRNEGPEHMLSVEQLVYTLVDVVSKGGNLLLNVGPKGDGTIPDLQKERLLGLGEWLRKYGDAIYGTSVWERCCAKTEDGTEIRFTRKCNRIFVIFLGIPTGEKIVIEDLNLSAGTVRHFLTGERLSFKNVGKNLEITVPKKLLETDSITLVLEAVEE
Briefly: pepsin digest LC-MS/MS of probe adducts. The conditions noted are these: covalent after turnover to quinone methide; adducts at W80 or W105, outside the active site.

In the next experiment the target is T3, AfcA (Bifidobacterium bifidum, UniProt Q6JV24).
T3 construct: catalytic GH95 fragment, residues 577-1474, C-terminal GGSGGSHHHHHHHH tag; pMAL-c4x-1-H(RBS)+ in E. coli BL21(DE3), Ni-NTA and Superdex 200 purified
Description: probe labelling, click biotinylation, blot chemiluminescence. The conditions noted are these: 350 uM probe, PBS pH 7.4, 37 C or room temperature (Figure 1); covalent after turnover to quinone methide.

T3 sequence (Q6JV24 entry or part of it): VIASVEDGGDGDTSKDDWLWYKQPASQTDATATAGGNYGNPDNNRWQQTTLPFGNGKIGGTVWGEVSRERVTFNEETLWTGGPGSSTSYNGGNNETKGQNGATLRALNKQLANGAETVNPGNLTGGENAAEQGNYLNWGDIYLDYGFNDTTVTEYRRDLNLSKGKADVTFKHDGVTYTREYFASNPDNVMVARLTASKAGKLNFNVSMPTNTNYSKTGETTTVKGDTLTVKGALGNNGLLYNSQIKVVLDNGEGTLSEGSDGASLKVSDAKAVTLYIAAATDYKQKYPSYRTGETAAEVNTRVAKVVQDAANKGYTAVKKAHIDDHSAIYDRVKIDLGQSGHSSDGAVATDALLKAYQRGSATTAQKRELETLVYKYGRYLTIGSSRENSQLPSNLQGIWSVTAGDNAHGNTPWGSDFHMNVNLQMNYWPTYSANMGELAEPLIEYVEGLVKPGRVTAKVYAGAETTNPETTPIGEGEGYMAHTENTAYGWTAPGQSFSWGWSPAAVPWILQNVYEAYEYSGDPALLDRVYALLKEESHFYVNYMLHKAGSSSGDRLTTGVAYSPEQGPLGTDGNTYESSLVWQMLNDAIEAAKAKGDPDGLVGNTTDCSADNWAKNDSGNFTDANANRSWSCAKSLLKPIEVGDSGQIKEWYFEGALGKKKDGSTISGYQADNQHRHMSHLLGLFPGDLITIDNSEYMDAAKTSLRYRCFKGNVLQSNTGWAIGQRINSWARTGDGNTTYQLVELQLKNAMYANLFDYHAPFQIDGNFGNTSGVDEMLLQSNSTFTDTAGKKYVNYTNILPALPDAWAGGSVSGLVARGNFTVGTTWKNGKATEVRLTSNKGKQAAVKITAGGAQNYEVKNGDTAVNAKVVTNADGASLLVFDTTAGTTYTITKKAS

Consider `C[C@@H]1NC[C@@H](O)[C@H](O)[C@@H]1O` [L-fuconojirimycin], for which the “block of AH062 probe labelling, blot chemiluminescence” value on BfFucH is recorded as “distinguishing the active from the inhibited enzyme (prepared by preincubation with the competitive inhibitor L-fuconojirimycin”.

Turning to `C[C@@H]1O[C@@H](Oc2ccc(NC(=O)CCOCCOCCOCCN=[N+]=[N-])cc2CF)[C@@H](O)[C@H](O)[C@@H]1O` [compound 12, 3-(2-(2-(2-azidoethoxy)ethoxy)ethoxy)-N-(3-(fluoromethyl)-4-(((2S,3S,4R,5S,6S)-3,4,5-trihydroxy-6-methyltetrahydro-2H-pyran-2-yl)oxy)phenyl)propanamide], the “pepsin digest LC-MS/MS of probe adducts” value on TmFuc is on record as “the quinone methide generated from AH062 had labeled either tryptophan W80 or W105”. The “probe labelling, click biotinylation, blot chemiluminescence” value at AfcA was “the probe detected the enzyme in a concentration-dependent manner”.

The values are drawn from article PMC8911971, “Detection of Bacterial α-L-Fucosidases with an Ortho-Quinone Methide-Based Probe and Mapping of the Probe-Protein Adducts” (Molecules, 2022).
